The text below walks through data of ChEMBL document CHEMBL3232912, “Anti-inflammatory diterpenoids from the roots of Euphorbia ebracteolata” (J Nat Prod, 2014).

Each structure is given as a SMILES string.

The test system of data set [1] is RAW264.7. As to the kind of experiment: Antiinflammatory activity in mouse RAW264.7 cells assessed as inhibition of LPS-induced nitric oxide production after 24 hrs by Griess method. In kind it is functional, cell-based. The note with it: RAW264.7, 24 h. (Griess reagent forms a coloured azo dye with nitrite.)
In data set [2] the test system is RAW264.7. Nature of the data set: Cytotoxicity against mouse RAW264.7 cells at IC50 by MTT assay. Format: cell-based. On the technique in general: Formazan colour is commonly taken as a measure of viable cells.

A word on the IC50: it is the point on the concentration scale where inhibition reaches its midpoint.

As for `COc1ccc2c(c1)c(CC(=O)O)c(C)n2C(=O)c1ccc(Cl)cc1` [INDOMETHACIN], the half-maximal inhibitory concentration (IC50) in data set [1] is 16.7 µM.
Turning to `C=C[C@]1(C)CC[C@@]2(C)c3cc(O)c(O)c(C)c3CC[C@@H]2C1`, the Activity entry in data set [2] is on record as “Non-toxic”. The IC50 in data set [1] was found to be 3.33 µM.
With `C=C[C@]1(C)CC[C@@]2(C)C3=C[C@@H](O)[C@H](O)C(C)(C)[C@@H]3CC[C@@H]2C1`, the Activity entry in data set [2] is on record as “Non-toxic”. Moreover, the IC50 in data set [1] was determined as 24.3 µM.
On to `C=C[C@]1(C)CC[C@@]2(CO)C3=CC[C@H](O)C(C)(C)[C@@H]3CC[C@@H]2C1`, for which the Activity result in data set [2] is “Non-toxic”. In addition, the IC50 in data set [1] stood at 5.57 µM.
The corresponding values for `C=C[C@]1(C)CC[C@@]2(C)C3=CC[C@H](O)[C@](C)(CO)[C@@H]3CC[C@@H]2C1` are “Non-toxic” and 7.29 µM.
On to `C=C[C@]1(C)CC[C@@]2(C)C3=CC(=O)O[C@@H]3C(C)(C)C[C@H](O)[C@@H]2C1`, for which, in data set [2], the Activity entry is “Non-toxic”. Besides, the concentration for half-maximal inhibition (IC50) in data set [1] turned out to be 6.49 µM.
Take `C=C[C@]1(C)CC[C@@]2(C)C3=C[C@H](O)[C@H](O)C(C)(C)[C@@H]3CC[C@@H]2C1`: the Activity result in data set [2] is “Non-toxic”. The half-inhibitory concentration (IC50) in data set [1] came to 12.5 µM.
The corresponding values for `C=C[C@]1(C)CC[C@@]2(C)C3=CC(=O)[C@@H]4C[C@]4(C)[C@]3(O)CC[C@@H]2C1` are “Non-toxic” and 2.76 µM.
On to `C=C[C@]1(C)CC[C@@]2(C)C3=CC[C@H](O)C(C)(C)[C@@H]3C[C@H](O)[C@@H]2C1`, for which, in data set [2], the Activity result is given as “Non-toxic”. Also, the IC50 in data set [1] turned out to be 5.51 µM.
As for `C=C[C@]1(C)CC[C@@]2(C)C3=CC(=O)[C@H](O)[C@](C)(CO)[C@@H]3CC[C@@H]2C1`, in data set [2], the Activity entry is on record as “Non-toxic”. Moreover, the IC50 in data set [1] is 1.02 µM.
In the same order, the values of `C=C[C@]1(C)CC[C@@]2(CO)C3=CC(=O)O[C@@H]3C(C)(C)CC[C@@H]2C1` are “Non-toxic” and 7.5 µM.
On to `C=C[C@]1(C)CC[C@]2(C)[C@H](CC[C@H]3[C@@](C)(CO)C(=O)C=C[C@@]32O)C1`, for which, in data set [2], the Activity entry is reported as “Non-toxic”. For the same compound, the IC50 in data set [1] came to 7.32 µM.
Consider `C=C[C@]1(C)CC[C@@]2(C)c3cc(O)c(O)c(C)c3C[C@H](O)[C@@H]2C1`, for which the Activity result in data set [2] is on record as “Non-toxic”. Further, the concentration for half-maximal inhibition (IC50) in data set [1] came out at 2.44 µM.
In the same order, the values of `C=C[C@]1(C)CC[C@]2(C)[C@H](CC[C@H]3[C@@](C)(CO)C(=O)C=C[C@]32O)C1` are “Non-toxic” and 19 µM.
